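Step 1: Grow cells in 96-well plates. Step 2: Expose to compound for 48 hours at 5 concentrations. Step 3: Interpolate endpoints linearly; if unreached, use highest concentration. Definition used: TGI = concentration required for complete inhibition of growth.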
What was measured:
Experiment in all cases: NCI tumour cell line growth inhibition, 48 h
DMS 114 small cell lung = tested on: DMS 114 small cell lung
M19-MEL melanoma = tested on: M19-MEL melanoma
XF 498 CNS = tested on: XF 498 CNS
LXFL 529 NSCLC = tested on: LXFL 529 NSCLC
KM20L2 colon = tested on: KM20L2 colon
RXF-631 renal = tested on: RXF-631 renal
SNB-78 CNS = tested on: SNB-78 CNS
SN12K1 renal = tested on: SN12K1 renal
P388/ADR leukemia = tested on: P388/ADR leukemia
P388 leukemia = tested on: P388 leukemia

Structure (SMILES)	TGI (DMS 114 small cell lung) [µM]	TGI (M19-MEL melanoma) [µM]	TGI (XF 498 CNS) [µM]	TGI (LXFL 529 NSCLC) [µM]	TGI (KM20L2 colon) [µM]	TGI (RXF-631 renal) [µM]	TGI (SNB-78 CNS) [µM]	TGI (SN12K1 renal) [µM]	TGI (P388/ADR leukemia) [µM]	TGI (P388 leukemia) [µM]
N#Cc1ccccc1NC(=O)C(=O)C1NC(=S)NC1=O (stereo not given)	> 100	> 100	> 100	> 100	> 100					
O=c1c2ccccc2nc2ccc3c(Cl)[nH][nH]c3c12	> 100	> 100		> 100	> 100	> 100	> 100			
[N-]=[N+]=NCC(O)Cn1cnc2c(NC(=O)c3ccccc3)ncnc21 (stereo not given)	> 100	> 100	> 100	> 100	> 100		> 100			
CCCCN(C)/N=N/c1nc[nH]c1C(N)=O	> 100	> 100	95.5		> 100		> 100	> 100	> 100	> 100
COc1ccc(Oc2ccccc2N)cc1	> 100	> 100		> 100	> 100	> 100	> 100			
CCC(=O)OC1CCn2c1nc1c2C(=O)C(C)=C(NC(C)=O)C1=N (stereo not given)	3.53	0.365	4.31		3.38		6.05			
CC1(C)O[C@@H](C[C@]2(C#N)C[C@H](CCl)OC(C)(C)O2)C[C@@H](C#N)O1	> 100	> 100	> 100		> 100		> 100			
Nc1c(S(=O)(=O)O)cc(S(=O)(=O)O)c2ccc(N=Nc3ccc(/C=C/c4ccc(N=Nc5ccc6c(S(=O)(=O)O)cc(S(=O)(=O)O)c(N)c6c5O)cc4S(=O)(=O)O)c(S(=O)(=O)O)c3)c(O)c12	> 100	> 100	> 92.9		> 100		> 100	> 100		> 100
CSc1cnc2ccccc2c1Sc1c[nH]c2ccccc2c1=O	32.9	34.6		46.3	15.9		> 100			
CCOC(=O)C1=C(O)c2ccc(C)cc2C(=O)C1=O	> 100	32.3	> 100		> 100		> 100			
CC(C)c1cc(C(C)C)c(S(=O)(=O)N=[N+]=[N-])c(C(C)C)c1		> 100	> 100	> 100	> 100	> 100				
CCN(CC)CC1CCCCN1CC(=O)N1CC(C)C(=O)Nc2ccccc21 (stereo not given)	> 100	> 100		> 100	> 100					
O=C1C2C=CC(n3[nH]c(=O)n(Cc4ccccc4)c3=O)CC2C(=O)N1c1ccc(Br)cc1 (stereo not given)	> 100	> 100		> 100	> 100		> 100			
C=C1C(C)C2C(Cc3ccccc3)NC(=O)C23OC(=O)/C=C\CC(=O)CCC(C)C/C=C/C3C1O (stereo not given)	6.61	12.5	1.07		15.8		2.08	3.43	2.1	0.385
COc1cc2c(c(OC)c1OC)-c1ccc(SC)c(=O)cc1[C@@H](NCc1ccc([N+](=O)[O-])cc1)CC2	0.00735	> 100		> 100	0.00435		> 100			
Cc1c2ccncc2c(C)c2c1[nH]c1ccc(OCCN(C)C)cc12		2.17	2.19		1.18		3.2	0.381	0.128	0.0675
CN(C)CC1CCC(CN(C)C)C(=O)C1=O (stereo not given)	12.9	33.9	4.95	3.09	30.8					
N/C(=N\N=C\c1ncccc1O)NO	> 100	> 78.6	69.2		> 100		> 100	> 69	11.5	12.8

— PubChem BioAssay (NCI)
